Experimental data reported in patent US3980794A, “Method for promoting growth of poultry with 3-(5-nitro-2-imidazolyl)pyrazoles” (Eli Lilly and Company, priority 1975, dated 1976).
≈ marks a conversion by molar mass, not a printed value.

Key:
Pasteurella multocida = assay: Oral activity against Pasteurella multocida-caused infection in chickens (Experiment 5A); type: in vivo; settings: 100 g./ton in feed
Protocol: A. Selected examples of the novel compounds were evaluated for their oral activity against Pasteurella multocida-caused infection in chickens. Four to five-week-old chickens were divided into groups of eight, and the compounds administered thereto in the feed. Two replicates were run for each compound. Twenty-four hours after the chickens began receiving the compound in their feed, the treated groups, as well as the nontreated control groups, were challenged intravenously with a broth culture of P. multocida. […] The chicks were observed during seven days following the challenge and the mortality in the treated groups was compared to that of the control group. The heart and liver were removed from each chicken which died during the test and cultured to determine the presence of P. multocida. At the termination of the test, all surviving chickens were sacrificed, the heart and liver removed from each chicken and cultured to determine the presence of P. multocida.

[1] = test system: Pasteurella multocida and Pasteurella hemolytica; assay: In vivo activity against pasteurellosis in calves (Experiment 10)
Protocol: The in vivo activity of compound 1 against pasteurellosis in calves was determined in the following manner. Twelve calves weighing approximately 180 pounds each were obtained from a commercial source and were brought to the research facility where they were weighed individually and identified by ear tag. The calves were divided into two groups of six calves each, and two hundred thousand ascaris ova were administered to each calf seven days prior to the pasteurella challenge. […] The compound was administered orally in two equal doses of 2000 mg. each, using capsules containing 500 mg. of compound each. The actual dosage of the test compound ranged from about 45 to about 55 mg. per kilo per head per day. The treatment was initiated one day prior to the pasteurella challenge and was continued daily for a total of seven days. […] The pasteurella challenge was prepared using three isolates of Pasteurella multocida and three isolates of Pasteurella hemolytica, all of bovine origin. The isolates were grown in tryptose culture for about 18 hours and then mixed in equal parts in a challenge cocktail. Approximately 0.1 ml. was used to aerosol-expose each calf. This exposure was carried out by placing a plastic bag over the head of each calf and running the aerosol into the bag. The pasteurella challenge was timed to coincide with the period of mechanical injury to the lung tissue caused by the […] larvae migration. […] All the calves were sacrificed on the tenth day post-pasteurella challenge, and the extent of pneumonic lesions in the lung tissues noted. Thus, after the calves were sacrificed, the lungs were removed from each calf and examined for lesions grossly. In addition, attempts were made to re-isolate pasteurella from the pneumonic lung tissue.

Aeromonas liquefaciens = assay: In vitro activity against fish bacterial pathogens, tube dilution (Experiment 13); settings: Aeromonas hydrophila, read-out: minimum inhibitory concentration (MIC), Aeromonas liquetaciens
P. multocida = assay: Oral activity against P. multocida in turkeys (Experiment 5B); type: in vivo; settings: 100 g./ton in feed
Salmonella dublin = assay: In vivo activity against Salmonella dublin in calves (Experiment 11)
Protocol: The in vivo activity of compound 1 against Salmonella dublin was determined in the following manner.
The calves for the in vivo experiment were purchased from a commercial source. Thirty-two calves were brought to the research facility where they were weighed individually and identified by ear tag. Each calf weighed about 90 pounds. The calves were then randomly divided by weight into eight groups of four calves each. Rectal swabs for Salmonella dublin and Escherichia coli isolation were obtained before treatment was started.
Four groups of four calves each were treated with the test compound. Treatment was started 24 hours after challenge with Salmonella dublin and continued for six consecutive days. Treatment was accomplished by oral administration twice daily of gelatin capsules of test compound 1. During the treatment, rectal swabs were taken daily of each calf and bacterial isolations for salmonella species were run. At the end of the trial, rectal swabs for E. coli and salmonella species were taken again. The trials were terminated the day following the last treatment, at which time the calves were weighed and sacrificed.
In the chart, column 1 records the dose rate/day/calf; column 2, the dose rate in mg./lb.; column 3, the survival ratio observed; and column 4, the occurrence of salmonella isolates obtained at necropsy.

Pseudomonas sp. = assay: In vitro activity against fish bacterial pathogens, tube dilution (Experiment 13); type: cell-based; settings: tryptose broth, overnight, 37°C., read-out: minimum inhibitory concentration (MIC), Pseudomonas
[2] = test system: Pasteurella multocida, bovine strain; assay: Oral activity against Pasteurella multocida, bovine strain, in mice (Experiment 3); type: in vivo, White Swiss mice; settings: 100 g. per ton of feed; LD50 of control minus LD50 of treated group (log10 dilutions)
Protocol: White Swiss female mice weighing 15-20 g. each were used in the test. Seven groups of ten mice each were treated at a level of 100 g. of test compound per ton of feed. The animals received the medication in the feed for 2 days prior to challenge and for 7 days post challenge. Similar groups of mice on a ration without the antimicrobial agent were used as controls. Both the treated mice and the control groups of mice were challenged with log10 dilutions ranging from 10^-^2 through 10^-^8 of a 16 to 20-hour culture of Pasteurella multocida, bovine strain, at 0.1 ml. per mouse, administered subcutaneously. […] By subtracting the LD50 of each of the treated groups from that of the control group of mice, there was obtained a figure called the protective index.
In the chart, column 1 lists the test compound, identified in the same manner as set forth in Experiment 1; and column 2 lists the protective index.

E. coli = assay: Oral activity against E. coli infection in chickens (Experiment 6); type: in vivo
Protocol: The evaluation of the effectiveness of selected nitroimidazoles for their oral activity against E. coli infection in chickens was accomplished as follows.
Broiler type, five-week-old chickens were wing-banded and individually weighed. Replicates of 8 chickens, each replicate having the same average chicken weight, were formed. Three replicates were run for each treatment. Treatment was initiated via the feed 24 hours prior to challenge. The E. coli challenge strain was No. 2- 1- 8. The challenge inoculum consisted of 0.5 ml. of 10^-^1 dilution of a 15-18 hour tryptose broth culture administered into the right thoracic air sac of each chicken. Eight to ten days following challenge, all surviving chickens were weighed and examined for lesions. Any chicken that died during the experiment was also examined for lesions such as air sac lesions, pericarditis lesions, and perihepatitis lesions, and a culture made. The pre-treatment average weight per bird was 790 g. The test compounds were the same as before, identified as 1, 6, and 7.

[3] = 100 mg./day oral (1.25 mg./lb.)

SMILES | Culture Isolation P. multocida (Pasteurella multocida; replicate 1) | Survival Ratio (Pasteurella multocida; replicate 1) | Culture Isolation P. multocida (Pasteurella multocida; replicate 2) | Survival Ratio (Pasteurella multocida; replicate 2) | Culture Isolation P. multocida (Pasteurella multocida; total) | Survival Ratio (Pasteurella multocida; total) | Culture Isolation P. multocida (P. multocida) | Survival Ratio (P. multocida) | Protective Index [2] | Avg. Wt./Chicken (E. coli; 100 g./ton in feed) | No. chickens with lesions/No. in group (E. coli; 100 g./ton in feed) | Survival Ratio (E. coli; 100 g./ton in feed) | Avg. Wt./Chicken (E. coli; 200 g./ton in feed) | No. chickens with lesions/No. in group (E. coli; 200 g./ton in feed) | Survival Ratio (E. coli; 200 g./ton in feed) | Avg. Wt./Chicken (E. coli; 300 g./ton in feed) | No. chickens with lesions/No. in group (E. coli; 300 g./ton in feed) | Survival Ratio (E. coli; 300 g./ton in feed) | also measured
Cn1nc(-c2ncc([N+](=O)[O-])n2C)c(C#N)c1N [Compound 1, 5-Amino-1-methyl-3-(1-methyl-5-nitro-2-imidazolyl)pyrazole-4-carbonitrile] | 0/ 8 | 8/ 8 | 1/ 8 | 8/ 8 | 1/16 | 16/16 | 0/5 | 5/5 | > 5.6 | 1058 g | 16/24 | 24/24 | 1104 g | 8/24 | 24/24 | 1014 g | 1/24 | 24/24 | pasteurella colonies in lungs of a third treated calf ([1]; at necropsy): only three pasteurella colonies; calves with moderate number of pasteurella colonies in lungs ([1]; at necropsy, six calves): Another treated calf; calves with numerous colonies of pasteurella in lungs ([1]; at necropsy, six calves): One of the treated calves; calves yielding no pasteurella from the lung tissue ([1]; at necropsy, six calves): Three of the treated calves; treatment response (control of lung lesions and reisolation of pasteurella) ([1]; oral, about 45 to about 55 mg. per kilo per day): All the calves treated with compound 1 showed a treatment response; body temperature ([1]; oral, about 45 to about 55 mg. per kilo per head per day, versus infected control): considerably lower; calves with moderate pneumonic lung lesion ([1]; oral, tenth day post-challenge, six calves): A single treated calf; MIC (Aeromonas liquefaciens): 3.12 µg/mL (≈ 12.6 µM); Salmonella isolates at necropsy (Salmonella dublin; [3]): 1/4; Survival Ratio (Salmonella dublin; [3]): 4/4; Salmonella isolates at necropsy (Salmonella dublin; 250 mg./day oral (2.5 mg./lb.)): 2/4; Survival Ratio (Salmonella dublin; 250 mg./day oral (2.5 mg./lb.)): 4/4; Salmonella isolates at necropsy (Salmonella dublin; 500 mg./day oral (5 mg./lb.)): 1/4; Survival Ratio (Salmonella dublin; 500 mg./day oral (5 mg./lb.)): 4/4; Salmonella isolates at necropsy (Salmonella dublin; 1000 mg./day oral (11 mg./lb.)): 0/4; Survival Ratio (Salmonella dublin; 1000 mg./day oral (11 mg./lb.)): 4/4; salmonella isolates from organs of treated calves (Salmonella dublin; at termination of the trial): reduced number of salmonella isolates; control of Salmonella dublin in calves (Salmonella dublin; compound 1 oral, about 100 to about 1000 mg./day/calf): effective in controlling Salmonella dublin in calves; MIC (Pseudomonas sp.): 6.25 µg/mL (≈ 25.3 µM)
COC=Nc1c(C#N)c(-c2ncc([N+](=O)[O-])n2C)nn1C [Compound 6, Methyl N-[4-cyano-1-methyl-3-(1-methyl-5-nitro-2-imidazolyl)pyrazol-5-yl]formimidate] | 0/ 8 | 8/ 8 | 0/ 8 | 8/ 8 | 0/16 | 16/16 | 0/5 | 5/5 | 4.3 | 1098 g | 11/24 | 24/24 | 1059 g | 1/24 | 24/24 | 1055 g | 6/24 | 24/24 | 
CCCCOC=Nc1c(C#N)c(-c2ncc([N+](=O)[O-])n2C)nn1C [Compound 7, Butyl N-[4-Cyano-1-methyl-3-(1-methyl-5-nitro-2-imidazolyl)-pyrazol-5-yl]formimidate] | 2/ 8 | 6/ 8 | 2/ 8 | 8/ 8 | 4/16 | 14/16 | 0/5 | 5/5 | 3.4 | 1023 g | 15/24 | 24/24 | 1033 g | 23/24 | 24/24 | 1132 g | 6/24 | 24/24 | 
